Experimental data published in patent US4383113A, “Agricultural sulfonamides” (E. I. Du Pont de Nemours and Company, priority 1981, dated 1983).

Assays:
Parameters in all cases: key: 0 = no effect, 10 = maximum effect; letter = response symbol
wild oats = experiment: Test A post-emergence; assay type: in vivo, Avena fatua
Outline: (§1)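 Seeds and tubers were treated preemergence in a growth medium with compound in a nonphytotoxic solvent, against untreated controls; emerged plants such as two-leaf barnyardgrass and five-leaf cotton were sprayed postemergence, against solvent-sprayed controls. After sixteen days in a greenhouse, response was rated visually from 0 to 10.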

morningglory [1] = experiment: Test A post-emergence; assay type: in vivo, Ipomoea spp.
Outline: as §1

crabgrass = experiment: Test A post-emergence; assay type: in vivo, Digitaria spp.
Outline: as §1

cocklebur [2] = experiment: Test A post-emergence; assay type: in vivo, Xanthium spp.
Outline: as §1

cotton = experiment: Test A post-emergence; assay type: in vivo
Outline: as §1

corn = experiment: Test A post-emergence; assay type: in vivo
Outline: as §1

soybean [3] = experiment: Test A post-emergence; assay type: in vivo
Outline: as §1

wheat [4] = experiment: Test A post-emergence; assay type: in vivo
Outline: as §1

sorghum = experiment: Test A post-emergence; assay type: in vivo
Outline: as §1

rice [5] = experiment: Test A post-emergence; assay type: in vivo
Outline: as §1

nutsedge = experiment: Test A post-emergence; assay type: in vivo, Cyperus rotundus
Outline: as §1

bush bean = experiment: Test A post-emergence; assay type: in vivo, bush beans
cassia [6] = experiment: Test A post-emergence; assay type: in vivo, Cassia tora
Outline: as §1

barnyardgrass = experiment: Test A post-emergence; assay type: in vivo, Echinochloa crusgalli
Outline: as §1

cocklebur [7] = experiment: Test A pre-emergence; assay type: in vivo, Xanthium spp.; details: 0.4 kg/ha
Outline: as §1

morningglory [8] = experiment: Test A pre-emergence; assay type: in vivo, Ipomoea spp.; details: 0.4 kg/ha
Outline: as §1

soybean [9] = experiment: Test A pre-emergence; assay type: in vivo; details: 0.4 kg/ha
Outline: as §1

wheat [10] = experiment: Test A pre-emergence; assay type: in vivo; details: 0.4 kg/ha
Outline: as §1

rice [11] = experiment: Test A pre-emergence; assay type: in vivo; details: 0.4 kg/ha
Outline: as §1

cassia [12] = experiment: Test A pre-emergence; assay type: in vivo, Cassia tora; details: 0.4 kg/ha
Outline: as §1

Compound	response rating (wild oats; 0.4 kg/ha)	response rating (morningglory [1]; 0.4 kg/ha)	response rating (crabgrass; 0.4 kg/ha)	response rating (cocklebur [2]; 0.4 kg/ha)	response rating (cotton; 0.4 kg/ha)	response rating (corn; 0.4 kg/ha)	response rating (soybean [3]; 0.4 kg/ha)	response rating (wheat [4]; 0.4 kg/ha)	response rating (sorghum; 0.4 kg/ha)	response rating (rice [5]; 0.4 kg/ha)	response rating (nutsedge; 0.4 kg/ha)	response rating (bush bean; 0.4 kg/ha)	response rating (cassia [6]; 0.4 kg/ha)	response rating (barnyardgrass; 0.4 kg/ha)	further results
COC(=O)c1ccccc1S(=O)(=O)NC(=O)Nc1nc(C)cc(C)n1 [drawing 412]	9C	10C	9C	10C	9C	9C	9C	9C	9C	10C	9C	9C	9C	10C	response rating (wild oats; 2 kg/ha): 9C; response rating (morningglory [1]; 2 kg/ha): 10C; response rating (crabgrass; 2 kg/ha): 9C; response rating (cocklebur [2]; 2 kg/ha): 9C; response rating (cotton; 2 kg/ha): 9C; response rating (corn; 2 kg/ha): 9C; response rating (soybean [3]; 2 kg/ha): 6C; response rating (wheat [4]; 2 kg/ha): 9C; response rating (sorghum; 2 kg/ha): 10C; response rating (rice [5]; 2 kg/ha): 10C; response rating (nutsedge; 2 kg/ha): 9C; response rating (bush bean; 2 kg/ha): 9C; response rating (cassia [6]; 2 kg/ha): 9C; response rating (barnyardgrass; 2 kg/ha): 10C
COC(=O)c1ccccc1S(=O)(=O)NC(=O)Nc1nc(OC)cc(OC)n1 [drawing 414]	9C	10C	–	9C	9C	9C	9C	9C	9C	8C	10C	9C	9C	9C	–
COC(=O)c1ccccc1S(=O)(=O)NC(=O)Nc1nc(C)nc(OC)n1 [drawing 415]	10C	10C	10C	9C	9C	10C	9C	10C	10C	10C	9C	9C	–	10C	–
COC(=O)c1ccccc1S(=O)(=O)NC(=O)Nc1nc(OC)nc(OC)n1 [drawing 416]	–	10C	9C	9C	–	10C	9C	–	9C	10C	9C	9C	9C	10C	–
COc1nc(NC(=O)NS(=O)(=O)c2ccccc2C(=O)OCCCl)nc(OC)n1 [drawing 422]	–	10C	2C	10C	9C	–	–	1C	–	6G	10C	9C	10C	–	–
COc1cc(OC)nc(NC(=O)NS(=O)(=O)c2ccccc2C(=O)OC(C)C)n1 [drawing 436]	6C	10C	6C	10C	9C	–	–	–	9C	7C	9C	–	9C	9C	–
COc1cc(C)nc(NC(=O)NS(=O)(=O)c2ccccc2C(=O)OC(C)C)n1 [drawing 437]	–	9C	–	10C	10C	9C	–	–	10C	8C	9C	–	9C	10C	–
COc1nc(NC(=O)NS(=O)(=O)c2ccccc2C(=O)OC(C)C)nc(OC)n1 [drawing 438]	2C	10C	6G	10C	9C	–	–	2C	–	8C	9C	–	9C	8C	–
CCCCOC(=O)c1ccccc1S(=O)(=O)NC(=O)Nc1nc(OC)cc(OC)n1 [drawing 439]	–	9C	–	9C	–	–	–	–	–	–	–	–	–	9C	response rating (wild oats; 2 kg/ha): 9C; response rating (morningglory [1]; 2 kg/ha): 10C; response rating (cocklebur [2]; 2 kg/ha): 9C; response rating (cotton; 2 kg/ha): 9C; response rating (corn; 2 kg/ha): 9C; response rating (wheat [4]; 2 kg/ha): 9C; response rating (sorghum; 2 kg/ha): 9C; response rating (rice [5]; 2 kg/ha): 9C; response rating (nutsedge; 2 kg/ha): 9C; response rating (cassia [6]; 2 kg/ha): 9C; response rating (barnyardgrass; 2 kg/ha): 10C
CCOC(=O)c1ccccc1S(=O)(=O)NC(=O)Nc1nc(OC)cc(OC)n1 [drawing 441]	–	–	–	–	–	–	–	–	–	–	–	–	–	–	response rating (wild oats; 2 kg/ha): 9C; response rating (morningglory [1]; 2 kg/ha): 10C; response rating (crabgrass; 2 kg/ha): 9C; response rating (cocklebur [2]; 2 kg/ha): 9C; response rating (cotton; 2 kg/ha): 9C; response rating (corn; 2 kg/ha): 9C; response rating (wheat [4]; 2 kg/ha): 9C; response rating (sorghum; 2 kg/ha): 10C; response rating (rice [5]; 2 kg/ha): 9C; response rating (nutsedge; 2 kg/ha): 9C; response rating (cassia [6]; 2 kg/ha): 9C; response rating (barnyardgrass; 2 kg/ha): 10C
CCOC(=O)c1ccccc1S(=O)(=O)NC(=O)Nc1nc(OC)cc(OC)n1 [drawing 442]	9C	10C	–	9C	9C	9C	–	9C	9C	9C	9C	–	9C	10C	–
COc1cc(C)nc(NC(=O)NS(=O)(=O)c2ccccc2C(=O)OCCOCCOCCCl)n1 [drawing 448]	9C	10C	–	9C	9C	–	8C	9C	–	8C	–	9C	9C	10C	–
COC(=O)c1ccccc1S(=O)(=O)NC(=O)Nc1nc(OC)cc(OC(C)C(=O)OC)n1 (centres unmarked) [drawing 468]	9C	9C	9C	–	–	9C	9C	9C	9C	9C	9C	9C	9C	9C	–
COC(=O)c1ccccc1S(=O)(=O)NC(=O)Nc1nc(C)nc(N(C)C)n1 [drawing 472]	9C	10C	–	9C	9C	9C	9C	9C	10C	10C	8G	9C	9C	10C	–
COc1cc(C)nc(NC(=O)NS(=O)(=O)c2ccccc2C(=O)SC2CCCCC2)n1 [drawing 476]	9C	10C	–	9C	9C	–	–	–	9C	9C	10C	9C	9C	9C	–
COC(=O)c1cc([N+](=O)[O-])ccc1S(=O)(=O)NC(=O)Nc1nc(C)cc(OC)n1 [drawing 529]	–	–	–	–	–	–	–	–	–	–	–	–	–	–	response rating (cocklebur [7]): 9G; response rating (morningglory [8]): 9G; response rating (soybean [9]): 9H; response rating (wheat [10]): 9G; response rating (rice [11]): 9H; response rating (cassia [12]): 9G
